Experimental data from patent US8093218B2, “Peptide derived from vascular endothelial growth factor receptor-1 binding integrin α5β1 having proangiogenic activity” (Provincia Italiana della Congregazione dei Figli …, priority 2006, dated 2012).
“Also recorded” adds a separate entry of the source.

Key:
[1] = test system: HUVEC adhesion to peptide 12; assay: adhesion of HUVEC to peptide 12 in presence of chelating agents or anti-integrin antibodies; type: cell-based, human; settings: HUVEC on plates covered with peptide 12
Procedure: The peptide 12 or the BSA, as non-specific adhesion control, were linked on plates and the HUVEC added in the presence of chelating agents (EDTA or EGTA).
The HUVEC were pre-incubated with an antibody against the integrin α5β1 or versus the integrinic subunit α6 and left to adhere on plates covered with peptide 12 or BSA.

[2] = test system: HUVEC; assay: formation of tubules of EC in Type I collagen gel; type: cell-based, human
Procedure: It was tested the ability of the peptide 12 to induce the formation of tubules of EC. HUVEC cells were plated on 24 wells plates previously covered with a mixture of gel Type I collagen, in the absence or presence of 500 μg/ml peptide 12 or peptide 1. A second layer of gel Type I collagen was placed on the adherent cells. As shown, in the absence or presence of peptides, were added, in the culture medium, different concentrations of VEGF (40 or 100 nM), or 20 μg/ml of protein VEGFR-1/Fc.

[3] = test system: HUVEC migration induced from VEGFR-1/Fc; assay: EC migration in Boyden chambers induced by VEGFR-1/Fc; type: cell-based, human; settings: HUVEC pre-incubated with peptide
Procedure: In order to investigate the ability to peptide 12 to influence the migration of the EC induced from VEGFR-1/Fc, a process mediated from the integrin α5β1, the HUVEC were pre-incubated with peptide 12 and peptide 1 and placed in Boyden chambers in order to analyze the migration induced from VEGFR-1/Fc or fibronectin (FN). Data represent the average of 14 microscopic fields and are referred to as percentage of inhibition compared to the migration observed in the absence of peptides.

[4] = target: T1, integrin α5β1 (Homo sapiens, UniProt P05556+P08648); assay: solid-phase binding of integrin α5β1 to alanine-substituted peptide 12 mutants; settings: purified integrin α5β1 on plates covered with mutant peptides
Procedure: Was also assessed the direct binding to integrin α5β1 with mutant peptides by a binding test on solid phase. The integrin α5β1 purified was added to plates covered with the various peptides and the amount bound was measured using an antibody anti-integrin α5β1 with a calorimetric method. The data were expressed as percentage of protein linked observed on plates covered with the original peptide 12.

[5] = test system: HUVEC; assay: cellular adhesion of HUVEC to alanine-substituted peptide 12 mutants; type: cell-based, human; settings: mutant peptides covalently linked to plates
Procedure: These peptides were tested for their ability to directly support the cellular adhesion. The ten peptides were covalently linked to plates, and were also tested, as negative controls, a peptide “scrambled” in which the amino acid sequence of the peptide 12 was modified (see Table 1.) (sP12) and BSA. The HUVEC were plated and allow to adhere. The results were expressed as percentage of the cellular adhesion observed on plates covered with the peptide 12.

[6] = test system: HUVEC adhesion to VEGFR-1/Fc; assay: inhibition by peptides of EC adhesion to VEGFR-1/Fc; type: cell-based, human; settings: peptide added to HUVEC suspension before plating
Procedure: (§1) In order to test the ability of the twelve chosen peptides to inhibit the adhesion of the EC to VEGFR-1 mediated from the integrin α5β1, every peptide was added to one suspension of HUVEC before plated on dishes covered with VEGFR-1/Fc or fibronectin (FN). The data were indicated as percentage of adhesion, calculated to the number of cells adhered on the substrate itself in absence of peptides.

[7] = test system: HUVEC adhesion to fibronectin (FN); assay: inhibition by peptides of EC adhesion to fibronectin; type: cell-based, human; settings: peptide added to HUVEC suspension before plating
Procedure: as §1

[8] = test system: angiogenesis; settings: previously published; cited from earlier work
[9] = target: T2, VEGF (Homo sapiens, UniProt P15692); settings: previously published; cited from earlier work
T2 sequence (P15692 207-320 limits assumed): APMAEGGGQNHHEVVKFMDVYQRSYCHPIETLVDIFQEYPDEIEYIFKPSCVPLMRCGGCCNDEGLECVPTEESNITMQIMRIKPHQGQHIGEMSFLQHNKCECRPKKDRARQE

[10] = target: T1, integrin α5β1; assay: integrin α5β1 aggregation around peptide-coated magnetic beads (immunostaining); type: cell-based; set-up: endogenous in cells; host or cells: HUVEC; settings: magnetic beads coated with peptide, immunostaining for integrin α5β1
Procedure: The integrins not linked are widely distributed on cellular membrane, but after the ligand binding and the activation merged in distinct structures called focal contacts and ECM contact.
(§2) It was examined whether the peptide 12 was able to induce aggregation of integrin α5β1 after the binding. EC adherent cells were incubated with magnetic beads coated with peptide 12, or peptide RGD or peptide RGE respectively as positive and negative controls, and immunostained with an antibody against integrin α5β1.

[11] = target: T1, integrin α5β1; assay: solid-phase binding of purified integrin α5β1 to plates covered with dII or VEGFR-1/Fc; settings: anti-integrin α5β1 antibody, colorimetric, absorbance at 405 nm
Procedure: The direct bind of the integrin α5β1 to the domain had been determined also with binding test on solid phase. The purified integrin α5β1 was added to plates covered with dII or with VEGFR-1/Fc like positive control and the integrin bound was measured using an antibody anti-integrin α5β1 and a colorimetric test.

[12] = test system: HUVEC; assay: adhesion of HUVEC on plates covered with recombinant protein; type: cell-based, human; settings: plates covered with the protein; absorbance at 540 nm
Procedure: The endothelial cells derived from human umbilical vein (HUVEC) were used to examine ability of the domain II to support the adhesion of EC in plates covered with the recombinant protein.
The HUVEC were incubated on plates covered with VEGFR-1 FC, with the domain II (dII) recombinant, with fibronectin (FN) or bovine serum albumin (BSA). The protein VEGFR-1/Fc, and the fibronectin were used as positive controls and BSA as negative control.
The cells assayed were coloured and the absorbance was measured.

[13] = target: T3, integrin α5β1 on endothelial cells derived from human umbilical vein (HUVEC) (human, UniProt P08648 42-1049; P05556 21-798); assay: magnetic beads coated with peptide on adherent HUVEC, immunostaining for integrin α5β1
T3 construct: whole, on cells; Endogenous integrin on HUVEC in the adhesion, migration and bead tests; also called integrin α5β1 of the EC
Procedure: as §2

T1 sequence (P08648 42-894 limits assumed): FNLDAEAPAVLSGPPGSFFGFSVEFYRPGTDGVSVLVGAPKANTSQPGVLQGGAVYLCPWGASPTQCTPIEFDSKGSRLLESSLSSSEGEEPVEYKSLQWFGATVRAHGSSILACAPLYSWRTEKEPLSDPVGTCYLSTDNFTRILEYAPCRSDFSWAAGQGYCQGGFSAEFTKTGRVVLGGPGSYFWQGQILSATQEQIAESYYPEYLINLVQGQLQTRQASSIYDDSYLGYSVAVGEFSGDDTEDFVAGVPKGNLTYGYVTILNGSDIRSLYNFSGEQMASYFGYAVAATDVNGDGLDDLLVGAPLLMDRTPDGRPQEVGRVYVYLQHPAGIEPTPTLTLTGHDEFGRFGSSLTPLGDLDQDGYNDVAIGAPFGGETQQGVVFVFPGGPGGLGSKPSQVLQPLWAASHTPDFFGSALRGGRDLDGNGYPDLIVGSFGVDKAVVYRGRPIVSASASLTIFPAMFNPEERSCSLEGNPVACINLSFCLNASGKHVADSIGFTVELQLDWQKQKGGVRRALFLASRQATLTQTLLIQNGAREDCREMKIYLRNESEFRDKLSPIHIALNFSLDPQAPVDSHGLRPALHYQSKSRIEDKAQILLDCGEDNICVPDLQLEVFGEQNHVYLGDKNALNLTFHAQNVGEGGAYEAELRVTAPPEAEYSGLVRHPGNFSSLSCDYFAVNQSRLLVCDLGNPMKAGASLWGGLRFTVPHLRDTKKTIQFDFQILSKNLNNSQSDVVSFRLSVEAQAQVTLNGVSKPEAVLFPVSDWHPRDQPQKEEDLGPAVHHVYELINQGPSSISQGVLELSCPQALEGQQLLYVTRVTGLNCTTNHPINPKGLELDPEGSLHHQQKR
T1 sequence (P08648 895-1049 partner limits assumed): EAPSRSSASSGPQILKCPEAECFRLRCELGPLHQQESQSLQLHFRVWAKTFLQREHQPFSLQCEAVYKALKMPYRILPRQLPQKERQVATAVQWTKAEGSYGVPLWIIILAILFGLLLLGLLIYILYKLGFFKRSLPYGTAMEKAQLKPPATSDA
T1 sequence (P05556 21-798): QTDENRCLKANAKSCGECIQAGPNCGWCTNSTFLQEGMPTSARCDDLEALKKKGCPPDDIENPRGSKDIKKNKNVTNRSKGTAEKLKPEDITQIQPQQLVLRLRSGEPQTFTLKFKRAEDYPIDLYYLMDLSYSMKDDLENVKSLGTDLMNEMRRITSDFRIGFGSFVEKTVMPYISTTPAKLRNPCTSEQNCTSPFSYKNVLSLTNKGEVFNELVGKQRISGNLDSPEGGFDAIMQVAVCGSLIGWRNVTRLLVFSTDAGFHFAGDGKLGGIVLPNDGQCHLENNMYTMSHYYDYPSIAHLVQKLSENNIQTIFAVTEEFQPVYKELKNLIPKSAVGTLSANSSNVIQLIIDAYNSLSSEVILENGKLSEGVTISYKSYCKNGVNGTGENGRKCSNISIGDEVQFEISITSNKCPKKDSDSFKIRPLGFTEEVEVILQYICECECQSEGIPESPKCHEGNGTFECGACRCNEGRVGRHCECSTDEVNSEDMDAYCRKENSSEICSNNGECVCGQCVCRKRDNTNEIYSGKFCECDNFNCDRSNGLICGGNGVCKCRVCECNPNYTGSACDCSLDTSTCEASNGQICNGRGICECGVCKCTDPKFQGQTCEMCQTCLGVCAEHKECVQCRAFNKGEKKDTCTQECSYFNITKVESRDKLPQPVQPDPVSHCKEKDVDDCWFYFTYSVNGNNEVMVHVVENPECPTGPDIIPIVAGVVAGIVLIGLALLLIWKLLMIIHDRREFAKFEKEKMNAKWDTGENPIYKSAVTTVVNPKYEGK
T3 sequence (P08648 42-1049, chain 1 of 2): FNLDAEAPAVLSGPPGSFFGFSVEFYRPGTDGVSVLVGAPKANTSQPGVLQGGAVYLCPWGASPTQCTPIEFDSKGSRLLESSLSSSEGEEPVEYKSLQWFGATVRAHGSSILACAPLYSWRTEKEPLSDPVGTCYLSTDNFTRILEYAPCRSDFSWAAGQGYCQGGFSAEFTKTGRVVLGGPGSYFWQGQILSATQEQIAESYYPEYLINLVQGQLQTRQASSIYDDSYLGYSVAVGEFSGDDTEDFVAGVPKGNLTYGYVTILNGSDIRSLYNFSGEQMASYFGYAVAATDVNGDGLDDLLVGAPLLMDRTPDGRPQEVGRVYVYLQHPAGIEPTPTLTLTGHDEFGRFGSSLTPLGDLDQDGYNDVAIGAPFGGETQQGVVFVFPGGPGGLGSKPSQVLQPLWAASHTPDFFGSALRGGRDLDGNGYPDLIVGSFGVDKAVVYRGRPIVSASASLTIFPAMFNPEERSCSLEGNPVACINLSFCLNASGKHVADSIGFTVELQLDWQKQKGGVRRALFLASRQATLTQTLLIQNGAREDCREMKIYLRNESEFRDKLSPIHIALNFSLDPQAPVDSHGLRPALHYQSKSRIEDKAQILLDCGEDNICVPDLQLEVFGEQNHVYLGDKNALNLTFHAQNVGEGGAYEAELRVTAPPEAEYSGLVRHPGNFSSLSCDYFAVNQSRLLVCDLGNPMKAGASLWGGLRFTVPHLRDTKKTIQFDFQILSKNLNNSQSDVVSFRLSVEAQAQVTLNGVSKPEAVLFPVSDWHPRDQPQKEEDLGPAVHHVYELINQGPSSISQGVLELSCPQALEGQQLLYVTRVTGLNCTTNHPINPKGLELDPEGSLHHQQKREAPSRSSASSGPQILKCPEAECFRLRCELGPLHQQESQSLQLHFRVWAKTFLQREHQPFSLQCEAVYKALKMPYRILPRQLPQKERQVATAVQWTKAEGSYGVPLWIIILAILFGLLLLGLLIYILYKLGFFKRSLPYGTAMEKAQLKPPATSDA
T3 sequence (P05556 21-798, chain 2 of 2): as the sequence (P05556 21-798) above

Molecule: O=C(O)CN(CCN(CC(=O)O)CC(=O)O)CC(=O)O [EDTA, reference compound]
- effect of agent on adhesion of EC to peptide 12 [1]: completely abolished adhesion of EC

Molecule: O=C(O)CN(CCOCCOCCN(CC(=O)O)CC(=O)O)CC(=O)O [EGTA, reference compound]
- effect of agent on adhesion of EC to peptide 12 [1]: completely abolished adhesion of EC

Molecule: GRPFVEMYSE (listed as Homo sapiens) [peptide 1, used as negative control]
- effect on VEGF-induced tubule formation ([2]; 500 μg/ml peptide with VEGF 40 nM): neither increased the effect of VEGF
- induction of formation of tubules of EC ([2]; 500 μg/ml peptide, collagen I matrix): did not induce the formation of tubules
- inhibition of EC migration induced by VEGFR-1/Fc [3]: completely ineffective

Molecule: His 223 peptide mutant in Ala: peptide 12 with His 223 mutated to alanine (NYLTARQ)
- role of replaced residue in integrin α5β1 binding to mutant peptide relative to peptide 12 [4]: important in supporting the protein/protein interaction
- cellular adhesion to mutant peptide relative to peptide 12 [5]: comparable
- cellular adhesion to mutant peptide relative to peptide 12 ([5]; listed as His 223): significantly reduce

Molecule: KFPLDTLIPDG (listed as Homo sapiens) [peptide 7]
- inhibition of adhesion of EC to VEGFR-1/Fc [6]: effectively blocked; also recorded: inhibit cellular adhesion to sVEGFR-1
- inhibition of adhesion of EC to fibronectin [7]: partially inhibit

Molecule: NITVTLKKFPL (listed as Homo sapiens) [peptide 5]
- angiogenesis inhibitor activity [8]: act as an angiogenesis inhibitor
- inhibition of adhesion of EC to VEGFR-1/Fc [6]: effectively blocked; also recorded: inhibit cellular adhesion to sVEGFR-1
- binding to VEGF / inhibition of VEGF binding to its receptors [9]: without binding to VEGF or inhibiting VEGF binding to its receptors

Molecule: RGE [peptide RGE, reference compound]
- integrin α5β1 aggregation / bead attachment on EC [10]: No beads covered with the peptide RGE was attached with HUVEC

Molecule: TEGRELVIPARVT (listed as Homo sapiens) [peptide 4]
- inhibition of adhesion of EC to VEGFR-1/Fc [6]: effectively blocked; also recorded: inhibit cellular adhesion to sVEGFR-1
- inhibition of adhesion of EC to fibronectin [7]: partially inhibit

Molecule: Y220A: peptide 12 with Tyr 220 replaced with alanine (NALTHRQ)
- role of replaced residue in integrin α5β1 binding to mutant peptide relative to peptide 12 [4]: residue more critical to the integrin binding
- cellular adhesion to mutant peptide relative to peptide 12 [5]: significantly reduce
- cellular adhesion to mutant peptide relative to peptide 12 ([5]; listed as Tyr 220 with ALA): completely abolished cellular adhesion

B1: dII recombinant: recombinant protein corresponding to VEGFR-1 domain II (residues 129-229), produced in SF9 cells (protein)
chain: SDTGRPFVEMYSEIPEIIHMTEGRELVIPCRVTSPNITVTLKKFPLDTLIPDGKRIIWDSRKGFIISNATYKEIGLLTCEATVNGHLYKTNYLTHRQTNTI
modifications: left off: small tags and cut ends
notes: recombinant protein corresponding to VEGFR-1 domain II (residues 129-229), produced in SF9 cells
- amount of integrin α5β1 bound to coated protein [11]: a similar amount of integrin interacted
- adhesion of HUVEC to coated protein [12]: supported the adhesion of the HUVEC

B2: peptide 12 (NYLTHRQ, VEGFR-1 residues 219-225) (peptide)
peptide: NYLTHRQ
notes: Covalently linked to plates or coated on magnetic beads, or added in solution to HUVEC; also called P12; original peptide 12
- binding result [13]: binds

B3: VEGFR-1/Fc: sVEGFR-1 fusion protein with the Fc domain of human immunoglobulins (protein)
chain: SKLKDPELSLKGTQHIMQAGQTLHLQCRGEAAHKWSLPEMVSKESERLSITKSACGRNGKQFCSTLTLNTAQANHTGFYSCKYLAVPTSKKKETESAIYIFISDTGRPFVEMYSEIPEIIHMTEGRELVIPCRVTSPNITVTLKKFPLDTLIPDGKRIIWDSRKGFIISNATYKEIGLLTCEATVNGHLYKTNYLTHRQTNTIIDVQISTPRPVKLLRGHTLVLNCTATTPLNTRVQMTWSYPDEKNKRASVRRRIDQSNSHANIFYSVLTIDKMQNKDKGLYTCRVRSGPSFKSVNTSVHIYDKAFITVKHRKQQVLETVAGKRSYRLSMKVKAFPSPEVVWLKDGLPATEKSARYLTRGYSLIIKDVTEEDAGNYTILLSIKQSNVFKNLTATLIVNVKPQIYEKAVSSFPDPALYPLGSRQILTCTAYGIPQPTIKWFWHPCNHNHSEARCDFCSNNEESFILDADSNMGNRIESITQRMAIIEGKNKMASTLVVADSRISGIYICIASNKVGTVGRNISFYITDVPNGFHVNLEKMPTEGEDLKLSCTVNKFLYRDVTWILLRTVNNRTMHYSISKQKMAITKEHSITLNLTIMNVSLQDSGTYACRARNVYTGEEILQKKEITIRGEHCNKKAVFSRISKFKSTRNDCTTQSNVKH
modifications: left off: a dimerising Fc or GST
notes: sVEGFR-1 fusion protein with the Fc domain of human immunoglobulins
- amount of integrin α5β1 bound to coated protein [11]: a similar amount of integrin interacted
- effect of VEGFR-1/Fc on constitution of tubules ([2]; 20 μg/ml VEGFR-1/Fc in culture medium): strong inhibition of the constitution of tubules
